Laboratory results published in publication PMC8146336, “The Mechanisms of Thiosulfate Toxicity against Saccharomyces cerevisiae” (Antioxidants, 2021).

Biological target: T1, cytochrome c oxidase (Saccharomyces cerevisiae, UniProt P00401+P00410)
T1 construct: gene COX1; native complex IV in whole sulfur-starved yeast cells; not purified; with Cytochrome c oxidase subunit 3; Cytochrome c oxidase subunit 4, mitochondrial; Cytochrome c oxidase subunit 5A, mitochondrial; Cytochrome c oxidase subunit 6, mitochondrial; Cytochrome c oxidase subunit 7, mitochondrial; Cytochrome c oxidase subunit 8, mitochondrial; Cytochrome c oxidase subunit 9, mitochondrial; Cytochrome c oxidase subunit 12, mitochondrial; Cytochrome c oxidase subunit 13, mitochondrial
Experiment: oxygen consumption of whole cells with TMPD/ascorbate as electron donor
Type: cell-based
Conditions: 10 mM thiosulfate, 12.5 mM ascorbate, 1.4 mM TMPD, PBS, sulfur-starved cells OD600 10; CuB binding only proposed

O=S(O)(O)=S [thiosulfate]
inhibition at 10 mM: In the assay, thiosulfate inhibited cytochrome c oxidase (Figure 5E)
